Source: US10570096B2, “Diamino pyridine derivatives” (NOVARTIS AG, priority 2015, dated 2020)

Columns and labels:
Type in all cases: biochemical
JAK3 = biological target: T1, JAK3 (Homo sapiens, UniProt P52333); assay: Enzymatic JAK assay (Caliper mobility shift), JAK3; details: GST-JAK3 (811-1124) kinase domain, 13 nM enzyme, 18 μM ATP (KmATP), 30° C., 60 minutes
T1 construct: GST-JAK3 (811-1124); host or cells: insect cells
Method: (§1) Enzymatic JAK assays. For enzyme assays affinity-purified GST-fusions of the active kinase domains (GST-JAK1 (866-1154), GST-JAK2 (808-1132), GST-JAK3 (811-1124), and GST-TYK2(888-1187) were expressed in insect cells or purchased from Invitrogen (Carlsbad, USA). All assays were performed in 384-well microtiter plates with 8-point serial dilutions of compounds. The kinase reactions were started by stepwise addition of 4.5 μl per well of a 2× peptide/ATP-solution and 4.5 μl per well of a 2× enzyme solution. The final ATP concentration used in the assays corresponds to the individually determined KmATP for the respective enzyme. Assay buffer: 50 mM HEPES, pH 7.5, 1 mM DTT, 0.02% Tween20, 0.02% BSA, 0.6% DMSO, 10 mM beta-glycerophosphate, and 10 μM sodium orthovanadate. Other components were adjusted specifically for the respective kinase assays: JAK1: 16 nM enzyme, 70 μM ATP, 2 μM peptide substrate, 12 mM MgCl2. JAK2: 1.8 nM enzyme, 20 μM ATP, 2 μM peptide substrate, 9 mM MgCl2. JAK3: 13 nM enzyme, 18 μM ATP, 2 μM peptide substrate, 1.5 mM MgCl2. Tyk2: 3.5 nM enzyme, 35 μM ATP, 2 μM peptide substrate, 9 mM MgCl2. […] Phosphorylated and unphosphorylated peptides were separated using the Caliper microfluidic mobility shift technology on a Caliper LC3000 workstation and kinase activities were calculated from the amounts of formed phospho-peptide.

Tyk2 = biological target: T2, Tyk2 (Homo sapiens, UniProt P29597); assay: Enzymatic JAK assay (Caliper mobility shift), Tyk2; details: GST-TYK2(888-1187) kinase domain, 3.5 nM enzyme, 35 μM ATP (KmATP), 30° C., 60 minutes
T2 construct: GST-TYK2(888-1187); host or cells: insect cells
T2 sequence (P29597 888-1187): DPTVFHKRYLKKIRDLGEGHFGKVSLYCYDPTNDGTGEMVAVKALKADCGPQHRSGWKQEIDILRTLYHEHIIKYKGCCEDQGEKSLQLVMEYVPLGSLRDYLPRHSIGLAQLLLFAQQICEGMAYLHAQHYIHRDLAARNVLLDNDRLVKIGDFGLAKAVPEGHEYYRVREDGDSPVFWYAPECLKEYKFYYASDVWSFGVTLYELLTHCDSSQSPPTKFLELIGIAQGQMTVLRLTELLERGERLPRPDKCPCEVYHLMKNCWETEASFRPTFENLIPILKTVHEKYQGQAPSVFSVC
Method: as §1

JAK2 = biological target: T3, JAK2 (Homo sapiens, UniProt O60674); assay: Enzymatic JAK assay (Caliper mobility shift), JAK2; details: GST-JAK2 (808-1132) kinase domain, 1.8 nM enzyme, 20 μM ATP (KmATP), 30° C., 60 minutes
T3 construct: GST-JAK2 (808-1132); host or cells: insect cells
Method: as §1

JAK1 = biological target: T4, JAK1 (Homo sapiens, UniProt P23458); assay: Enzymatic JAK assay (Caliper mobility shift), JAK1; details: GST-JAK1 (866-1154) kinase domain, 16 nM enzyme, 70 μM ATP (KmATP), 30° C., 60 minutes
T4 construct: GST-fusions of the active kinase domains (GST-JAK1 (866-1154)); host or cells: insect cells
Method: as §1

T3 sequence (O60674 808-1132): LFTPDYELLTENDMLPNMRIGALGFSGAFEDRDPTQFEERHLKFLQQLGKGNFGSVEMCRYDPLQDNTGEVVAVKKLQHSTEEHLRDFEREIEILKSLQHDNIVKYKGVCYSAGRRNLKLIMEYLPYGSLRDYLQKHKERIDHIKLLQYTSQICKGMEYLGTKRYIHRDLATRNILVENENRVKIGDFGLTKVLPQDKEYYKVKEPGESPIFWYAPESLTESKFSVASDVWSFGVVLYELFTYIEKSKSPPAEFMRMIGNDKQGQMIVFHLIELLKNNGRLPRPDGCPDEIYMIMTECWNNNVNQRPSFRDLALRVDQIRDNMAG
T1 sequence (P52333 811-1124): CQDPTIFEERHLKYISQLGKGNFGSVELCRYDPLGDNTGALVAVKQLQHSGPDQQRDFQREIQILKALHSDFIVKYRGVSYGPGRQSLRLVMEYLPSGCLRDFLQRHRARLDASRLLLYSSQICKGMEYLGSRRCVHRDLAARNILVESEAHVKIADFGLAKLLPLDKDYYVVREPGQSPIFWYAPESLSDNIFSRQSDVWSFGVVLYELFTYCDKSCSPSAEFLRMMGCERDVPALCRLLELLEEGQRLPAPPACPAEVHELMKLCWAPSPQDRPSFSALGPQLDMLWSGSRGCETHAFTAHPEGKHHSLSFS
T4 sequence (P23458 866-1154): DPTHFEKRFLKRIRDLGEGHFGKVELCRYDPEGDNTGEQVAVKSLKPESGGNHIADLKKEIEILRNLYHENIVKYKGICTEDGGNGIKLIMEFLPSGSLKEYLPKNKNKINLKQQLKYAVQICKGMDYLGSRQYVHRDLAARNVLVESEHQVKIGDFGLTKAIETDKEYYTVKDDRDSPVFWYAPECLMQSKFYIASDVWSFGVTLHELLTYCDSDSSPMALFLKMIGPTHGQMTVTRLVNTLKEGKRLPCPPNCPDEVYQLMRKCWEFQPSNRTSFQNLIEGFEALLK

IC50 (JAK3) [nM] | IC50 (Tyk2) [nM] | IC50 (JAK2) [nM] | IC50 (JAK1) [nM] | Structure (SMILES)
15 | 24 | 25 | 12 | Cc1cccc(Nc2cc(Nc3ccccc3Cl)c(C(N)=O)cn2)n1 [Example 2, 4-((2-chlorophenyl)amino)-6-((6-methylpyridin-2-yl)amino)nicotinamide]
9 | 14 | 14 | 18 | NC(=O)c1cnc(Nc2ccccn2)cc1Nc1ccccc1Cl [Example 1, 4-((2-chlorophenyl)amino)-6-(pyridin-2-ylamino)nicotinamide]
